The values below are quoted from earlier work in US6746697B2, “Composition containing Heliopsis longipes root extract and oral carrier” (Phytos, Inc., priority 2000, dated 2004).

For data set [1], the system named is certain microorganisms (Gram positive and Gram negative bacteria). Particulars: purified affinin from ethanol extract; toxicity varying for Gram positive and Gram negative bacteria.
For a further data set, the system named is mice. The note with it: orally to mice.

Turning to `C/C=C/C=C\CC/C=C/C(=O)NCC(C)C` [affinin, N-isobutyl-2E, 6Z, 8E-decatrienamide], in data set [1], the toxicity to microorganisms entry is “toxic to certain microorganisms”. Moreover, the analgesic effect result in the data set with mice (aqueous solution, doses from 2.5 to 10.0 mg/kg) is recorded as “analgesic effect”. Also, in the data set with mice (highest dose (10.0 mg/kg)), the deaths result was “two out of five deaths” and the “effect on normal motor activity” value is recorded as “severe depression of normal motor activity”.
